# Source: ChEMBL document CHEMBL3352654, “Synthesis, biological evaluation and SAR analysis of O-alkylated analogs of quercetin for anticancer” (Bioorg Med Chem Lett, 2014)
# Legend:
# Format in all cases: functional, cell-based
# A549 = assay: Anticancer activity against human A549 cells by HTS assay
# NCI-H157 = assay: Anticancer activity against human NCI-H157 cells by HTS assay
# [1] = Anticancer activity against human H460 cells by HTS assay; conditions: NCI-H460
# NCI-H1792 = assay: Anticancer activity against human NCI-H1792 cells by HTS assay
# [2] = Anticancer activity against human NCI-H1944 cells by HTS assay
# [3] = Anticancer activity against human […] cells by HTS assay
# NCI-H522 = assay: Anticancer activity against human NCI-H522 cells by HTS assay
# HOP-62 = assay: Anticancer activity against human HOP62 cells by HTS assay
# [4] = Anticancer activity against human H1299 cells by HTS assay; conditions: NCI-H1299
# [5] = Anticancer activity against human 292G cells by HTS assay
# [6] = Anticancer activity against human Calu1 cells by HTS assay; conditions: Calu-1
# [7] = Anticancer activity against human M4E cells by HTS assay
# [8] = Anticancer activity against human LOXIMVI cells by HTS assay; conditions: LOX IMVI
# M14 = assay: Anticancer activity against human M14 cells by HTS assay
# [9] = Anticancer activity against human SKBR cells by HTS assay
# HeLa = assay: Anticancer activity against human HeLa cells by HTS assay
SMILES,IC50 (A549) [µM],IC50 (NCI-H157) [µM],IC50 [1] [µM],IC50 (NCI-H1792) [µM],IC50 [2] [µM],IC50 [3] [µM],IC50 (NCI-H522) [µM],IC50 (HOP-62) [µM],IC50 [4] [µM],IC50 [5] [µM],IC50 [6] [µM],IC50 [7] [µM],IC50 [8] [µM],IC50 (M14) [µM],IC50 [9] [µM],IC50 (HeLa) [µM]
COc1cc(O)c2c(=O)c(O)c(-c3ccc(OC)c(O)c3)oc2c1 [OMBUINE],3.07,3.45,2.75,3.36,2.86,> 50,17.4,12.1,34.8,40.7,> 50,30.7,> 50,4.29,8.3,1.49
CCOc1cc(O)c2c(=O)c(OCC)c(-c3ccc(OCC)c(OCC)c3)oc2c1,47.6,> 50,22.1,> 50,> 50,> 50,> 50,44,24.9,> 50,> 50,21.4,19.4,> 50,> 50,> 50
COc1cc(O)c2c(=O)c(OC)c(-c3ccc(OC)c(O)c3)oc2c1 [AYANIN],20.8,18.6,12.8,> 50,21.9,> 50,20.2,20.1,> 50,> 50,> 50,16.2,46,37.1,10.8,19.5
CCCOc1ccc(-c2oc3cc(O)cc(O)c3c(=O)c2O)cc1O,13.9,10.2,12.2,13.3,21.4,31.1,49.5,21.9,46.5,28.5,26.5,27.4,> 50,25.4,18,21.6
CCCCOc1cc(O)c2c(=O)c(OCCCC)c(-c3ccc(OCCCC)c(O)c3)oc2c1,31.5,> 50,> 50,> 50,> 50,> 50,> 50,> 50,> 50,> 50,> 50,> 50,> 50,> 50,> 50,6.62
COc1ccc(-c2oc3cc(O)cc(O)c3c(=O)c2O)cc1O [TAMARIXETIN],2.63,3.04,4.45,4.06,3.86,7.57,> 50,9.93,22,12.5,24.9,19.9,> 50,14.8,7.97,1.81
CCOc1cc(O)c2c(=O)c(O)c(-c3ccc(OCC)c(O)c3)oc2c1,22.6,> 50,9.7,> 50,42.4,25.5,7.21,30.2,21.8,> 50,> 50,> 50,49.4,> 50,> 50,20.2
CCCCOc1cc(O)c2c(=O)c(O)c(-c3ccc(OCCCC)c(O)c3)oc2c1,2.06,0.39,3.16,3.09,0.56,15.9,35.6,4.43,4.54,17.7,6.21,6.29,2.36,9.35,4.39,0.87
CCOc1cc(O)c2c(=O)c(OCC)c(-c3ccc(OCC)c(O)c3)oc2c1,22.6,> 50,15.6,> 50,4.72,> 50,> 50,36.3,48.5,> 50,> 50,18,> 50,> 50,6.66,14.6
CCCCOc1c(-c2ccc(O)c(O)c2)oc2cc(O)cc(O)c2c1=O,13.4,6.32,19.7,4.57,7.04,31.7,12.6,21,> 50,28.9,> 50,18.9,26.3,25.6,9.18,10.6
